Series [1] concerns histamine-induced contraction of isolated guinea pig trachea. Put plainly: Inhibitory effect on histamine-induced contraction of isolated guinea pig trachea. Details: species or system guinea pig (male Hartley). To be noted: 3×10^-5 M histamine; isolated guinea pig trachea; read-out: Anti-hist. activity IC50. Here is the method: (2) Inhibitory effect on histamine-induced contraction of isolated guinea pig trachea:
Male Hartley guinea pigs (400-700 g) were used. Zig-zag strips of guinea pig trachea were prepared by the method of Emmerson and Mackay [cf. J. Pharm. […] Dose-response curves for histamine were obtained before and 5 minutes after the addition of test compounds. Inhibitory rate was calculated from contraction heights in 3×10^-5 M of histamine without vs. with test compound.

The subject of series [2] is experimental asthma. Put plainly: Inhibitory effect on experimental asthma in rats. Format: in vivo, rat (male Wistar). Conditions: Rattus norvegicus, po. Here is the method: (2) Inhibitory effect on experimental asthma in rats: This test was carried out by the method of Church and Miller [cf. Brit. […] Male Wistar rats (200-250 g) were sensitized by an intraperitoneal injection of 1 ml of a 0.01% egg albumin solution containing 1 mg of Al(OH)3. Two weeks later, the rats were anesthetized with 1.3 g/kg of urethane. The trachea and jugular vein were cannulated. Respiratory volume and velocity were measured by attaching one end of the tracheal cannula to respiratory volume meter connected to a carrier amplifier and an integrator. The rats were challenged by an intravenous injection of 4 mg/kg of egg ablumin 30 minutes after the anesthesia. Test compounds, dissolved or suspended in a 0.5% aqueous tragacanth solution, were administered orally 1 hour before the antigen challenge. Each group of 4 rats was used for each dose of the test compound. ED50 values were calculated from the best fit linear regression line of inhibitory rates of respiratory volume and velocity in each dose.

Series [3] has as its system human basophils. Put plainly: Inhibitory effect on histamine release induced by anti-human IgE antibody from healthy human basophils. The class given is cell-based. To be noted: Homo sapiens, read-out: Histamine release inhibit. IC50. The procedure:
(3) Inhibitory effect on histamine release induced by anti-human IgE antibody from healthy human basophils:
Basophils from nonallergic volunteers were collected by the method of Levy and Osler [cf. […] The cells were washed once with a cold Tris-A buffer at pH 7.4 (25 mM Tris, 120 mM NaCl, 5 mM KCl and 0.03% human serum albumin) containing 4 mM EDTA and twice with Tris-A buffer. After washing, the cells were resuspended at 5-10×10^6 leukocytes/ml in Tris-ACM buffer at pH 7.6 (Tris-A buffer, 0.6 mM CaCl2 and 1 mM MgCl2). One ml of the cell suspension was incubated with 0.1 ml of a solution of test compound or vehicle for 15 minutes at 37° C., and then for further 45 minutes with 0.1 ml of anti-human IgE antibody. After ice-cooling, the reaction mixtures were centrifuged at 1,200 rpm for 8 minutes at 4° C. The supernatant fluids and the cells were analysed separately for histamine by a modification of the spectrophotofluorometric technique of Shore et al. [cf. […] Histamine release rate was calculated according to the following equation. [formula] A: total histamine (supernatant+cell) B: supernatant histamine without anti-IgE
C: supernatant histamine with anti-IgE
Inhibitory rate was calculated from histamine release rates without vs. with test compound.

Series [4] can be described thus: Acute lethal toxicity in mice. Conditions: mouse, in vivo; oral, mortality observed for two weeks. Here is the method:
Test 3 Acute lethal toxicity in mice
Test compounds were suspended in a 0.5% aqueous tragacanth solution. LD50 values were calculated according to the method of Litchfield and Wilcoxon [cf. J. Pharmacol. Exp. Ther., 96, 99 (1949)].

Series [5] relates to contact hypersensitivity to oxazolone. Put plainly: Inhibitory effect on contact hypersensitivity to oxazolone in mice. The class given is in vivo, mouse (male ICR). Conditions: topical, 1.0 mg/ear; 24 hours after challenge. Here is the method: (3) Inhibitory effect on contact hypersensitivity to oxazolone in mice:
This test was carried out by the method of Evans et al. [cf. Brit.
Male ICR mice (18-20 g) were used. The abdominal region of the mice was carefully clipped with an electric clipper, and 0.1 ml of a 0.5 w/v % oxazolone solution in absolute ethanol was gently rubbed into the clipped area. Five days after the sensitization 20 μl of a 0.5 w/v % oxazolone solution in acetone or chloroform, or the solution containing test compound was applied to both sides of the right ear. The left ear was not treated. Twenty-four hours after the challenge, the animals were sacrificed with diethyl ether. The circular parts (5.5 mm in diameter) of both ears were removed by punching and then weighed. The inhibitory rate was determined by comparing the ear swelling of the mice treated with oxazolone containing test compound with that of the mice treated with oxazolone. Each group of 8 mice was used for each dose of the test compound.

Series [6] has as its target T1, 5-lipoxygenase (Cavia porcellus, UniProt A0A286X958).
T1 construct: The cytosol fraction of peritoneal exudate cells from male Hartley guinea pigs (400-700 g) was used as 5-lipoxygenase; from tissue; host or cells: cytosol fraction of peritoneal exudate cells (leukocytes) of male Hartley guinea pigs
T1 sequence (A0A286X958 1-674): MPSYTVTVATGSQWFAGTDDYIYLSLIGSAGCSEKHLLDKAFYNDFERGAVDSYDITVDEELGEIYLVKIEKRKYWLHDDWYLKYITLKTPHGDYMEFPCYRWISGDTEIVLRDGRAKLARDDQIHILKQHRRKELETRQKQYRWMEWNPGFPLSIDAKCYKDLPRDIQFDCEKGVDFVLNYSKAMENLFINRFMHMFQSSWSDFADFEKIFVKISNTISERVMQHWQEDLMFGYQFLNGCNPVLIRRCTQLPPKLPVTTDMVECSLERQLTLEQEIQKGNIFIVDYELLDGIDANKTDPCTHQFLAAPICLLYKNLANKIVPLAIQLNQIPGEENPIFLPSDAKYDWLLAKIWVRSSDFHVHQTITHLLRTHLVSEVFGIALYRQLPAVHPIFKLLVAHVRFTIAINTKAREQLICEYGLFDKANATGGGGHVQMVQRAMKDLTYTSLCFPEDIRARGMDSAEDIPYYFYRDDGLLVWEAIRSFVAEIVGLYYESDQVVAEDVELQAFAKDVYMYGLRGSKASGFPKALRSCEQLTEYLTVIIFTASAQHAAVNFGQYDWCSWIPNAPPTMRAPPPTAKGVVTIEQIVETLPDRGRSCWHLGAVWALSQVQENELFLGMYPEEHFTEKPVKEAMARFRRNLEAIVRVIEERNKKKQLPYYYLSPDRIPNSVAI
Put plainly: Inhibitory effect on 5-lipoxygenase activity in guinea pig leukocytes. Conditions: 10^-4 M. The class given is biochemical, guinea pig (male Hartley). The procedure: (1) Inhibitory effect on 5-lipoxygenase activity in guinea pig leukocytes:
This test was carried out by the method of Miyamoto and Obata (cf. "Perspectives in Prostaglandin Research," ed. by Y. Shiokawa et al., Excepta Medica, Amsterdam-Oxford-Princeton, 1983, p78) with minor modifications.
The cytosol fraction of peritoneal exudate cells from male Hartley guinea pigs (400-700 g) was used as 5-lipoxygenase. The standard reaction mixture contained 50 mM potassium phosphate buffer, 1 mM CaCl2, 1 mM glutathione, 1 mM adenosine triphosphoric acid, 10 μM indomethacin and the enzyme. The mixture was incubated for 5 minutes at 30° C. after addition of [1-^14 C]arachidonic acid (0.02 μCi). The reaction was terminated by addition of 0.6 ml of the cold organic solvents (diethyl ether/methanol/0.2M citric acid=30/4/1). The organic layer (300 μl) was applied onto a precoated silica gel 60F254 glass plate (E. Merck, West Germany). Radioactivity on the plate was monitored by a radiochromatogram scanner (Packard, U.S.A.). 5-Lipoxygenase activity was calculated according to the following equation. [formula]
The effects of the test compounds were expressed in terms of percent inhibition.

For series [7], the system named is passive cutaneous anaphylaxis (PCA). Put plainly: Inhibitory effect on passive cutaneous anaphylaxis (PCA) in rats. Format: in vivo, rat (male Wistar). To be noted: Rattus norvegicus, po, read-out: Inhibition (PCA in rats). The procedure:
(1) Inhibitory effect on passive cutaneous anaphylaxis (PCA) in rats:
This test was carried out by the method of Perper et al. [cf.
Male Wistar rats (130-180 g) were injected with 0.1 ml of a dilute solution of mouse antiserum to egg albumin in two sites of the shaved ventral skin. Forty-eight hours later each rat was challenged by an intravenous injection of 2 mg of the antigen together with 1 ml of a 0.5% Evan's blue saline solution. The rats were sacrificed 30 minutes after the challenge. The area of the blueing lesions was measured on the undersurface of the skin. The average value of the two lesions of each rat was regarded as the response of the rat. Test compounds in a dose of 20 mg/kg, dissolved or suspended in a 0.5% aqueous tragacanth solution, were administered orally 1 hour before the antigen challenge. The inhibitory rate was determined by comparing the responses of the rats given each test compound with those of the rats given only a 0.5% aqueous tragacanth solution. Each group of 3 rats was used for each test compound. The mouse antiserum to egg albumin was produced by the method of Levine and Vaz [cf. Int. Arch. Allergy Appl.

SMILES strings stand for the structures. Counter-ions that a name gives are not always drawn. Like-named read-outs stand apart in the source and are kept apart here.

A word on the IC50: it is the concentration that inhibits the measured activity by half. For orientation: ED50 means the midpoint of the dose-response relation. One may read the LD50 as the dose expected to kill half of the subjects tested. The term inhibition denotes the relative decrease from the control value, in per cent. Consider `CN1CCC(=C2c3ccccc3CC(=O)c3sccc32)CC1` [Ketotifen fumarate, reference compound], for which the IC50 in series [1] was 2.9 nM; in series [3], more than 100 µM. Also, the 50% effective dose (ED50) stood at 20.5 mg/kg in series [2] (read-out: ED50, respiratory velocity) and 22.6 mg/kg in series [2] (read-out: ED50, respiratory volume). The compound further gave a median lethal dose (LD50) at 336 h in series [4] of 537 mg/kg. For the same compound, the “% Inhibition of ear swelling” value in series [5] was 49.0%. Further, in series [6], the “5-lipoxygenase inhibiting activity (in words)” value was “did not exhibit any significant inhibiting activity”. For the same compound, the inhibition at 100 µM in series [6] (read-out: 5-Lipoxygenase inhibit. activity, Inhibition) stood at 11.5%. Moreover, the inhibition in vivo at 20 mg/kg in series [7] came to 54.7%.

These data come from patent US4778796A, “ω-(3-pyridyl)alkenamide derivatives and anti-allergenic pharmaceutical compositions containing same” (Dainippon Pharmaceutical Co., Ltd., priority 1985, dated 1988).
